# Reference: patent US9974787B2, “Modified albumin microbubble” (National Taiwan University of Science and Technology, priority 2016, dated 2018)
# Values joined by “and” are separate entries in the source; they are usually repeats but may differ in a detail not shown here. Identical values can stand only once.
# Tests used:
# [1] = Transdermal penetration study of Mx released by Mx-COL-MBs (Franz diffusion cell); type: in vitro ADME, porcine; conditions: Mx 0.3 mg/ml; for Amount of skin penetration (cumulative Mx penetration amount): 18th hour; for Amount of total penetration: 18 hours; for Amount of skin absorption: after 18 hours
# Experimental: Transdermal Penetration Study of Mx Released by Mx-COL-MBs
# The procedures of the study included: interposing a piece of 3 mm-thick porcine ear skin between a donor cell and a receptor cell of the Franz diffusion cell at a temperature of 37±0.5° C. 1 ml of any one of the abovementioned 6 solutions was applied to the donor cell facing the stratum corneum (SC) side, enabling the MB, Mx, or Mx-COL-MB to penetrate the Parafilm on a bottom of the donor cell and reach the skin. Besides, the receptor cell facing the dermis side was filled with 12 ml of PBS at pH 7.4, accompanied with magnetic stirring at the rate of 600 rpm and 0.01% gentamicin to prevent bacterial degradation of the Mx during the penetration process. At the 0.5th hr, a 1-MHz ultrasound sonicator was positioned 3 mm from the top of the skin, and the skin was sonicated at a power density of 3 W/cm^2 for 1 min. At the time intervals of 0.5, 1, 2, 3, 4, 5, 6, 8, 12 and 18 hours, 1 ml of receptor solution sample filtered by 0.2-μm pores was extracted from the receptor cell to measure the Mx content in the receptor solution, with the receptor solution refilled each time with the same volume of PBS. After 18 hours, the porcine skin sample was washed and then homogenized with 1 ml of the receptor solution. The supernatant was centrifuged to acquire further supernatant to measure the absorbed amount of Mx in the porcine ear skin.
# C57BL/6 mice = test: Study of animal hair growth (skin luminosity of shaved back); type: in vivo; conditions: for number of mice with significantly lower skin luminosity: day 10, Mx 0.3 mg/ml topical; for hair growth rate: day 16, Mx 0.3 mg/ml
# Experimental: Study of Animal Hair Growth
# The study utilized 6-week-old C57BL/6 mice weighing 20-25 g, which were shaved at an area of about 10 cm^2 in the back at 8 weeks old, when all of the hair follicles were synchronized in the telogen phase. […] Among all groups, the US treatment was applied at 3 W/cm^2 for 1 min, and the concentration of Mx was 0.3 mg/ml (i.e. 0.5 ml/cm^2) in all groups. The change in skin luminosity of the shaved area was assessed using the Chroma Meter. The hair growth rate was calculated according to the following equation: Hair growth rate (%)=(L1−Ln)/L1×100%
# where L1 is the luminosity index of the shaved area, and Ln is the luminosity index of the area at different time intervals.
# [2] = Study of transdermal penetration depth (FITC); conditions: 0.1 mg FITC, retained 6 hr on porcine ear skin
# Experimental: Study of Transdermal Penetration Depth
# Each group contained 0.1 mg FITC (fluorescein isothiocyanate), and was uniformly loaded onto the porcine ear skin with an area of 4.5 cm^2 and a thickness of 3 mm, sonicated by the 1-MHz ultrasound sonicator successively at power density of 3 W/cm^2, with each sonication period of 1 min. After sonication, the FITC (and the MBs) retained on the porcine ear skin for 6 hr, and was then washed away.
# FIG. 7A-7C are bright-field images, and FIG. 7D-7F are dark-field fluorescent images.
# [3] = with ultrasound treatment 3 W/cm^2, 1 min
# [4] = with US treatment 3 W/cm^2, 1 min
compound,measurement,setting,value
"Nc1cc(N2CCCCC2)nc(N)[n+]1[O-] [Comparative example 4, Minoxidil]",Amount of skin penetration (cumulative Mx penetration amount),[1]; without ultrasound treatment,103.1 ± 0.5 µg/mL and 103.1 ± 0.51 µg/mL
same,Amount of total penetration,[1]; without ultrasound treatment,155.54 ± 10.05 µg/mL
same,Amount of skin absorption,[1]; without ultrasound treatment,52.42 ± 9.55 µg/mL
same,number of mice with significantly lower skin luminosity,C57BL/6 mice; without US treatment,1
same,hair growth rate,C57BL/6 mice; without US treatment,45.5%
"Nc1cc(N2CCCCC2)nc(N)[n+]1[O-] [Comparative example 8, Minoxidil]",Amount of skin penetration (cumulative Mx penetration amount),[1]; [3],113.0 ± 6.0 µg/mL and 113.01 ± 5.95 µg/mL
same,Amount of total penetration,[1]; [3],126.04 ± 7.52 µg/mL
same,Amount of skin absorption,[1]; [3],33.02 ± 1.56 µg/mL
same,number of mice with significantly lower skin luminosity,C57BL/6 mice; [4],1
same,hair growth rate,C57BL/6 mice; [4],64.5%
fluorescein isothiocyanate [Comparative example 6],penetration depth of FITC,[2]; without US treatment,312±19 μm
fluorescein isothiocyanate [Comparative example 7],penetration depth of FITC,"[2]; with US treatment 1 MHz, 3 W/cm^2, 1 min",405±23 μm
